Like-named read-outs stand apart in the source and are kept apart here.
Assays:
human TRPV3 = biological target: T1, human TRPV3 (Homo sapiens, UniProt Q8NET8); assay: In vitro antagonism of recombinant human TRPV3 activation (FLIPR Tetra calcium assay); format: cell-based; conditions: HEK293 cells stably expressing human TRPV3, agonist 2-APB at 80 μM
T1 construct: expressed in transfected cells
T1 sequence (Q8NET8 1-790): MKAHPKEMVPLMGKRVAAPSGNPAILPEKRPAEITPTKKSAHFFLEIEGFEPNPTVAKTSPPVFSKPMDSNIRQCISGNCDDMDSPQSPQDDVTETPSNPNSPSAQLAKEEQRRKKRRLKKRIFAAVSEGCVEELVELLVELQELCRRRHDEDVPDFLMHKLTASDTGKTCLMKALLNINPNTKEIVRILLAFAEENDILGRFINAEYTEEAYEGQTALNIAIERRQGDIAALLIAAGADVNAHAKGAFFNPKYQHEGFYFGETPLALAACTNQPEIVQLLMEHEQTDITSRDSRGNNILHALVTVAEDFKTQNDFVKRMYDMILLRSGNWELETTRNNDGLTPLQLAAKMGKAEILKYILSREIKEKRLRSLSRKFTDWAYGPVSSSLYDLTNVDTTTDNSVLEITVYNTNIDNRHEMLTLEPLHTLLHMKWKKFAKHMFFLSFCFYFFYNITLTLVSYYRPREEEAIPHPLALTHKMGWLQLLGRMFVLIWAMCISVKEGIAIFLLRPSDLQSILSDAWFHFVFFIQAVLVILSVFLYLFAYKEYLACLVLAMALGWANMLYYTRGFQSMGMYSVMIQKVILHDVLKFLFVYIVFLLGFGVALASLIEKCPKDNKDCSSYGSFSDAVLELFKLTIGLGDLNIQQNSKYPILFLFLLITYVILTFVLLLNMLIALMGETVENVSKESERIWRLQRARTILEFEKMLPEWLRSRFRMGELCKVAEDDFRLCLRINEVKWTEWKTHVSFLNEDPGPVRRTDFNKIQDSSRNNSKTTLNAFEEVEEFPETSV
Experimental: Test compounds were evaluated for ability to antagonize the activation of recombinant human TRPV3 using FLIPR® Tetra cellular screening. Specifically, on the day prior to the experiment recombinant HEK293 cells that stably express human TRPV3 were removed from tissue culture flasks and plated in growth medium at 20,000 cells/well into Poly-d-lysine coated black/clear 384-well Plate (Corning, 3845) using a Multidrop® dispenser (ThermoScientific, Waltham, Mass.). Prior to the start of the assay, the medium was removed by aspiration, and cells were loaded with 30 μL no-wash FLIPR® Calcium-4 dye (λEX=470-495 nm, λEM=515-575 nm; Molecular Devices, Sunnyvale, Calif.). The cells were then incubated for 90-120 minutes in the dark prior to addition of the test compound.
A double-addition protocol was used. The test compound (i.e., the TRPV3 antagonist) was added at the 10 second time point, followed by the addition of a TRPV3 agonist three minutes later. Each test compound evaluated was first dissolved in DMSO to prepare a 10 mM stock solution. A solution (5×) of the test compound was then prepared in DPBS (Dulbecco's Phosphate Buffered Saline) and 10 μl, of that solution was added to the cells at a delivery rate of 40 μL/sec. The TRPV3 agonist used to activate human TRPV3 expressed by the […] was 2-aminoethoxy-diphenyl borate (2-APB; Tocris Cookson, Ellisville, Mo.) at 80 μM. Final assay volume was 50 μl, Total length of an experimental run was 10 minutes.
Changes in fluorescence were measured over time using the FLIPR® instrument. The intensity of the fluorescence was captured and digitally transferred to an interfaced computer. The maximum response minus minimum response was calculated and expressed as the percentage of the maximum 2-APB response in the absence of antagonist. The concentration of 2-APB corresponds to its EC80.
Table 1 reports the IC50 values measured for the test compounds as human TRPV3 antagonists. […] Actual measured values are shown parenthetically after the reported range. In most cases, the values reported are average values from at least two runs (i.e., n≧2).

[1] = In vitro human microsomal stability assay; format: in vitro ADME; conditions: human, microsomes, 0.5 h, 0.5 μM, pH 7.4
Experimental: (§1) Test compounds were evaluated for metabolic stability in an in vitro rat microsomal stability assay using rat liver microsomes (Sprague-Dawley, from BD Biosciences) and/or an in vitro human microsomal stability assay using human liver microsomes (Xenotech). […] Incubations were carried out at 37° C. with a final incubation volume of 135 μL. […] A 1.5 μL aliquot of reduced nicotine adenine disphosphonucleotide (NADPH) (Chem-Impex Int'L Inc., Lot 12532024) was also added to the time-zero plates.

[2] = In vitro rat microsomal stability assay; format: in vitro ADME, rat (Sprague-Dawley); conditions: Sprague-Dawley, rat, microsomes, 0.5 h, 0.5 μM, pH 7.4
Experimental: as §1

[3] = actual measured value shown parenthetically, in most cases average of at least two runs, read-out: IC50
[4] = reported range, read-out: IC50 (range class)

| Compound | IC50 (human TRPV3; [3]) [µM] | IC50 (human TRPV3; [4]) [µM] | HUMAN MICROSOMAL STABILITY (% REMAINING AFTER 30 MINUTES) [1] [%] | RAT MICROSOMAL STABILITY (% REMAINING AFTER 30 MINUTES) [2] [%] |
| --- | --- | --- | --- | --- |
| OC(C1CCCc2cccnc21)C1(c2ccc(C(F)(F)F)cc2)CCC1 (single isomer, unassigned) [Example 184, (syn)-5,6,7,8-tetrahydroquinolin-8-yl{1-[4-(trifluoromethyl)phenyl]-cyclobutyl}methanol] | > 20 | > 20 | 0.46 | <0.01 |
| O[C@H](c1ccccn1)C1(c2cc(C(F)(F)F)ccn2)CC(F)(F)C1 [Example 126, (S)-{3,3-difluoro-1-[4-(trifluoromethyl)pyridin-2-yl]cyclobutyl}(pyridin-2-yl)methanol] | 0.82 | – | 21 | 7.7 |
| Cc1ccccc1C1(C(O)c2ccccn2)CCCO1 (centres unmarked) [Example 90, [2-(2-methylphenyl)tetrahydrofuran-2-yl](pyridin-2-yl)methanol] | 0.46 | – | 35 | <0.01 |
| OC(C1CCc2cccnc21)C1(c2cccc(OC(F)(F)F)c2)CCC1 (stereo not drawn) [Example 189, (anti)-6,7-dihydro-5H-cyclopenta[b]pyridin-7-yl{1-[3-(trifluoromethoxy)-phenyl]cyclobutyl}methanol] | > 20 | > 20 | 0.65 | <0.01 |
| OC(c1ccccn1)C1(Cc2cccc(F)c2)CCC1 (centres unmarked) [Example 254, [1-(3-fluorobenzyl)cyclobutyl](pyridin-2-yl)methanol] | 4.22 | – | 1.1 | 0.57 |
| OC(c1ccccn1)C1(c2ccc(C(F)(F)F)cn2)CC(F)(F)C1 (centres unmarked) [Example 137, {3,3-difluoro-1-[5-(trifluoromethyl)pyridin-2-yl]cyclobutyl}(pyridin-2-yl)-methanol] | 4.87 | – | 77 | >85 |
| N[C@H]1CCC[C@H]1[C@@H](O)C1(c2ccc(OC(F)(F)F)cc2)CCC1 [Example 229, (R)-[(1R,2S)-2-aminocyclopentyl]{1-[4-(trifluoromethoxy)phenyl]-cyclobutyl}methanol] | 4.58 | – | >85 | 80 |
| OC1CC(c2ccc(F)c(Cl)c2)([C@H](O)c2ccccn2)C1 (stereo partly drawn) [Example 276, 3-(3-chloro-4-fluorophenyl)-3-[(S)-hydroxy(pyridin-2-yl)methyl]-cyclobutanol] | 0.2 | – | 72 | 73 |
| OC(c1ccccn1)C1(c2ccc(Cl)c(Cl)c2)CC(F)(F)C1 (centres unmarked) [Example 82, [1-(3,4-dichlorophenyl)-3,3-difluorocyclobutyl](pyridin-2-yl)methanol] | 0.78 | – | 35 | 16 |
| N[C@H]1CCC[C@H]1[C@H](O)C1(c2ccc(Cl)c(Cl)c2)CCC1 [Example 217, (S)-[(1R,2S)-2-aminocyclopentyl][1-(3,4-dichlorophenyl)cyclobutyl]-methanol] | 3.99 | – | 73 | 68 |
| Cc1cccc(C2(C(O)c3ccccn3)CCCO2)c1 (centres unmarked) [Example 91, [2-(3-methylphenyl)tetrahydrofuran-2-yl](pyridin-2-yl)methanol] | 0.33 | – | 46 | 1.0 |

Source: patent publication US8772499B2, “TRPV3 modulators” (AbbVie Inc., priority 2011, dated 2014)
